“Also recorded” adds a separate entry of the source. Like-named read-outs stand apart in the source and are kept apart here.
Tests used:
[1] = tested on: cutaneous blood flow; conditions: animal models; cited from earlier work
[2] = tested on: patients with lymphedema; format: in vivo, human
Excerpt: The improvement in perfusion within the small arterioles decreases the hydrostatic pressure at the end arterioles and therefore reduces interstitial fluid accumulation that impedes the return of lymph fluid within the lymphatic vessels. The physics model for this phenomenon makes use of Bernouli's equation and its relationship to a Venturi tube. Hydrostatic pressure proximal to a relative stricture creates a pressure gradient that leads to increased transudation that overwhelms the capacity of the lymphatic system to manage. The vasodilatory effects of the parasympathetic nervous system upon small arterioles produces improved perfusion and lessens the accumulation of lymphedema. A common example of lymphedema occurs following joint replacement surgery with swelling that persists for three to six months and sometimes permanently. Lymphedema following joint replacement surgery slows recovery and creates pain while predisposing to deep vein thrombosis and infection.

[3] = tested on: patients with Multiple Sclerosis; format: in vivo, human; conditions: galantamine 4 mg orally three times daily, foley catheter removed 48 hours later
Excerpt: The present invention provides an acetylcholinesterase inhibitor to increase the relative concentration of […] within the central nervous system to improve parasympathetic neural transmission and combat the features of M. S. that often present in a craniosacral distribution. Cranial symptoms include mental status changes, emotional lability as well as optic dysfunction and nystgmus. Cranial nerves that control extracular muscles are also affected. Cranial involvement can also manifest as swallowing problems with frank dysphagia. The sacral manifestations of parasympathic dysfunction relate to bowel and bladder control. The symptoms of spastic bladder, urinary retention and constipation are relieved by treatment with an Acetylcholinesterase inhibitor raising the concentrations of acetylcholine to enhance the neural transmission of the parasympathetic nervous system to facilitate normal bowel and bladder function. The craniosacral manifestations of M.S. are reflected in dysfunctional neural transmission associated with the parasympathetic nervous system and can be ameliorated or corrected by treatment with an acetylcholinesterase inhibitor. Improved blood flow within the vasovasorum of the myelin sheath/nerve is also considered useful in amelioration of MS symptoms. […]

[4] = tested on: patients with rheumatologic conditions (RA, SLE, PMR, polymyositis); assay: Patient case histories: rheumatological conditions; format: in vivo, human
Excerpt: The use of an acetylcholinesterase inhibitor raises level of acetylcholine by inhibition of cholinesterase. The Increased levels of acetylcholine stimulate neuronal receptors of the parasympathetic nervous system and non-neuronal receptors associated with the intima of blood vessels and leukocytes. This dual effect of improving flow within the microvascular circulation and stabilization of leukocytes and their adhesion to the wall of blood vessel produces the anti-inflammatory effect that is observed with the use of an acetylcholinesterase inhibitor for treatment of rheumatologic diseases.

[5] = tested on: patients with phantom pain; assay: Patient case histories: phantom pain following amputation; format: in vivo, human
Excerpt: The present invention further provides a method of treating phantom pain following amputation in both upper and lower extremities. “Phantom pain” is a phenomenon described following amputation of either an upper or lower extremity. The sensation is common following amputation and present with varying degrees of discomfort and debility. A patient with phantom pain is typically treated with antidepressants, Neurontin® (gabapeninand) narcotics to a varying degree. The use of acetylcholinesterase inhibitors decreases the need for narcotics and generally eliminates the need for poly pharmacy improving pain, enhancing wound healing and improved sleep pattern in amputee patients. The dose of acetylcholinesterase inhibitor is titrated to GI (gastrointestinal) tolerance with bowel movement consistency and frequency the determining factors. Treatment with acetylcholinesterase inhibitor increases the available acetylcholine which is the neurotransmitter responsible for activation of the parasysmpathic nervous system appear responsible for Noxious symptoms of phantom pain for discomfort. The present invention provides a method of treating phantom pain associated with amputation of either upper or lower extremity.

[6] = tested on: patients with urinary retention; assay: Patient case histories: urinary retention (voiding trials, post void residuals); conditions: for post void residuals (PVR's): before 150-200 cc
[7] = tested on: patients with chronic renal insufficiency; assay: Patient case histories: chronic renal insufficiency (serum creatinine, BUN); format: in vivo, human; conditions: galantamine 4 mg orally three times daily
Excerpt: To postpone or avoid the sequelae of chronic renal insufficiency, treatment with acetylcholinesterase inhibitors increase the concentration of acetycholine available to promote blood flow to the renal cortex preventing loss of nephrons and allowing existing renal parenchyma to provide the vital function of the kidney. Just as parasympathetic outflow provide homeostatic neural input to the elimination of function of the intestine, the same parasympathetic innervation provides vasodilatation of the small arterioles supplying the cortex of the kidneys allowing for optimal functioning.

[8] = tested on: patients with diabetic polyneuropathy; format: in vivo, human
Excerpt: The symptoms of motor and sensory loss of diabetic polyneuropathy are ameliorated by acetylcholinesterase inhibitions by increasing concentration of acetylcholine, the principle neurotransmitter of the parasympathetic nervous system. By augmenting the trophic input of nerves of parasympathic nervous system; pain and dyserethesia are diminished and weakness/atrophy of muscles are diminished. The clinical observation in non-Alzheimer's patients is an improvement in motor and sensory function following treatment with effective doses of an acetylcholinesterase inhibitor. Improved blood flow within the microvascular circulation supplying the vasovasorum of the nerves produces the beneficial effect. By restoring blood flow to the vasovasorum of the nerves ischemic pain is relieved and normal function of the nerve is allowed to occur. The process of vasodilatation of the microvascular circulation is mediated through both neuronal and non-neuronal acetylcholine receptors stimulation by acetylcholine. Enhancement in acetylcholine levels is effected through treatment with acetylcholinesterase inhibitors.
The physiologic shift favoring vasoconstriction that is associated with diabetes is reversed following administration of an acetylcholinesterase inhibitor allowing perfusion of the microvasculature, restoring blood flow to ischemic motor and sensory nerves damaged by the effects of diabetes.

[9] = tested on: patients with peripheral vascular disease and diabetes mellitus; assay: Patient case histories: microvascular disease / vascular insufficiency; format: in vivo, human; conditions: galantamine 4-8 mg two to four times daily
Excerpt: In summary, vascular insufficiency from diabetes is associated with compromise of the microvascular circulation. Treatment with an effective dose of an acetylcholinesterase inhibitor raises the relative concentration of acetylcholine promoting vasodilitation of the microcirculation (end arterioles) through stimulation of neuronal and non-neuronal acetylcholine receptors in the intima of the blood vessels. The beneficial effects of promoting vasodilitation and enhanced tissue perfusion correcting the dystrophic changes and alleviating ischemic pain and ulcers is readily apparent in this series of patients.
The present invention provides a method for the medical management of peripheral vascular disease. The management of peripheral vascular disease with acetylcholinesterase inhibitor addresses the central dilemma in vascular perfusion of the lower extremities. By increasing the relative concentration of acetylcholine, the parasympthetic nervous system is enhanced, improving blood flow at the tissue level by relaxation of the small end arterioles and improving perfusion therefore decreasing vascular edema, enhancing resolution of trohpic ulcers and alleviating rest pain and claudication complaints. The parasympathetic nervous system controls vascular beds in the small arterioles and by increasing the available acetylcholine, dilatation occurs and blood flow improves. By treatment with acetylcholinesterase inhibitors the end results in improved vascular blood supply, decreased congestion at the small arterioles level and improved blood supply. This is particularly necessary in diabetic patients. The presence of non-neuronal acetylcholine receptors with the intima of blood vessels at the microvascular level represents a second physiologic mechanism whereby dilatation of small blood vessels is facilitated by the use of an acetylcholinesterase inhibitor. This latter mechanism owing to the sensitive nature of the cholinesterases associated with the non neuronal acetylcholine system provides sustained cholinergic activity impacting the microvascular circulation and improving perfusion at the critical end arteriole-capillary-venule level.

[10] = tested on: patients with GI or urinary side effects of an acetylcholinesterase inhibitor; assay: Treatment of side effects of acetylcholinesterase inhibitors (case histories); format: in vivo; conditions: for relief of GI side effects (nausea, diarrhea, frequent bowel movements, cramps): metoclopramide (Reglan) 5 mg before meals and at bedtime, with an acetylcholinesterase inhibitor; for relief of urinary side effects (polyuria, frequency): Detrol / Detrol LA 2-4 mg daily with donepizil
Excerpt: Metoclopramide (Reglan®) is an […].
The most extreme example of neuropathic pain arises following amputation where there is complete transection of the nerve. Pain complaints are difficult to manage with the usual combinations of anti-seizure drugs, tricyclic anti-depressants and narcotics.

[11] = tested on: patients with Parkinson's disease; conditions: rivastigmine 1.5-3 mg twice daily
[12] = tested on: patients with neuropathic pain; conditions: rivastigmine test dose
[13] = tested on: regional blood flow in the brain; conditions: PET scanning; Alzheimer's patients and normal subjects; cited from earlier work
[14] = tested on: patients with myofascial pain / fibromyalgia; assay: Patient case histories: fibromyalgia / myofascial pain syndrome; format: in vivo, human
Excerpt: The present invention provides a method for treating fibromyalgia and myofascial pain syndrome by increasing tissue levels of acetylcholine. Acetylcholine is the neurotransmitter of the parasympathic nervous system. The inventive method increases the relative amount of parasympathetic transmission and thereby facilitates resolution of the pain areas and diminishes the need for narcotics and polypharmacy. The reduction in the use of narcotics, NSAIDs, and tricyclic antidepressants and other medications used for pain having their deleterious side effects is a major benefit. By administration of acetyl cholinesterase inhibitor, the relative concentrations of acetylcholine are increased and available to propagate the impulses of the parasympathic nervous systems and within the non-neuronal acetylcholine receptors diminishing pain and spasms. […] The influence of non-neuronal acetylcholine receptors affected by enhanced levels of acetylcholine produces a reduction in pro-inflammatory mediators and increased blood flow to the nerve fibers involved in pain transmission. The net effect is a reduction in inflammation and improved blood flow to the vasovasorum of the affected nerves reducing the painful sensations.

[15] = rivastigmine 1.5 mg twice daily

Compound: CC(=O)OC(C)C[N+](C)(C)C (stereo not shown) [Methacholine]
- cutaneous blood flow and skin temperature [1]: increases cutaneous blood flow and skin temperature

Compound: COc1ccc2c3c1O[C@H]1C[C@@H](O)C=C[C@@]31CCN(C)C2 [galantamine]
- side effects ([2]; galantamine 4 mg orally three times daily, asthma patient): without compromise of their pulmonary condition
- post void residuals [3]: < 100 cc
- side effects ([4]; galantamine 4-8 mg three times daily): no adverse side effects of diarrhea or nausea
- side effects ([5]; galantamine 4 mg BID titrated to four times a day): without nausea/vomiting or GI upset
- use of Oxycodone/APAP ([5]; galantamine 8 mg BID over two weeks, before: 5 tablets per day): 2-3 tablets per week
- post void residuals (PVR's) ([6]; galantamine 4 mg orally three times daily): under 100 cc
- side effects ([6]; galantamine 4 mg three times daily to 8 mg two or three times daily): no untoward side effects; also recorded: mild nausea (without emesis)
- post void residuals (PVR's) ([6]; galantamine 8 mg orally twice daily): ~50 cc
- serum creatinine ([7]; before treatment 1.8): 1.4
- BUN (blood urea nitrogen) ([7]; before treatment 32): 21
- improvement in Left foot drop ([8]; galantamine titrated to 8 mg TID (a person)): 80-85%
- side effects [9]: No symptoms of diarrhea or gastroesophageal reflux disease (GERD) were reported; also recorded: no untoward side effects

Compound: CCN(CC)CCNC(=O)c1cc(Cl)c(N)cc1OC [Reglan, metoclopramide]
- relief of GI side effects (nausea, diarrhea, frequent bowel movements, cramps) [10]: able to continue treatment with donepizil; also recorded: prompt resolution of their GI complaints; also recorded: prompt relief of their GI complaints; also recorded: treated successfully
- relief of GI side effects (nausea, diarrhea, frequent bowel movements, cramps) ([10]; listed as metoclopramide): easily managed; also recorded: ameliorated or eliminated

Compound: Cc1ccc(O)c([C@H](CCN(C(C)C)C(C)C)c2ccccc2)c1 [Detrol LA, tolterodine]
- relief of urinary side effects (polyuria, frequency) [10]: prompt reduction in their urinary frequency; also recorded: able to tolerate this regimen
- relief of urinary side effects (polyuria, frequency) ([10]; listed as Detrol): treated successfully

Compound: CCOc1ccccc1OCCN[C@H](C)Cc1ccc(OC)c(S(N)(=O)=O)c1 [Flomax]
- voiding trial ([6]; Flomax 0.4 mg, then 0.8 mg, residuals in excess of 300 cc's before): first voiding trial was unsuccessful; also recorded: second voiding trial was also unsuccessful

Compound: CCN(C)C(=O)Oc1cccc([C@H](C)N(C)C)c1 [rivastigmine]
- side effects [2, 15]: no ill side effects
- side effects [11]: no negative side effects
- clinical outcome (phantom pain) [12]: notable improvement in their phantom pain within one hour
- clinical outcome (swelling, warmth, pain) ([4]; rivastigmine 1.5 mg orally twice daily, Rheumatoid Arthritis flair-up): signs of swelling and warmth improved but the patient still had complaints of pain
- clinical outcome (pain, swelling) ([4]; rivastigmine 3 mg orally twice daily, Rheumatoid Arthritis flair-up): pain symptoms resolved within a day; also recorded: concomitant improvement in their lower extremity swelling
- side effects ([4]; rivastigmine 1.5-3 mg twice daily): no adverse side effects such as dyspepsia, diarrhea or polyuria
- recurrence under prophylaxis ([4]; rivastigmine lower dose for prophylaxis, three month): no recurrence of pain or swelling
- regional blood flow in the brain / CNS structures [13]: Regional blood flow is increased; also recorded: improve blood flow to CNS structures; also recorded: improve regional blood flow in the brain
- course after the drug was withdrawn or lapsed ([8]; drug stopped after initial improvement): complaints of weakness and loss of ambulatory ability
- side effects ([14]; rivastigmine): no ill effects; also recorded: no adverse side effects
- clinical outcome (pain) [14, 15]: significant improvement; also recorded: greater control of their pain
- clinical outcome (pain) ([14]; rivastigmine 3 mg twice daily): near complete alleviation in their pain; also recorded: pain symptoms became less frequent
- clinical outcome (narcotic use) ([14]; rivastigmine 4 mg orally twice daily titrated upward to 8 mg three times daily): use of narcotics was completely eliminated

— patent US20060183733A1, “Treating microvasculature diseases with acetyl cholinesterase inhibitors” (priority 2005, published 2006)
